SMILES strings stand for the structures.

This passage reports tumor volume results from patent US11260100B2, “Compositions targeting the interaction domain between p27Kip1 and Brk and methods of use thereof to inhibit p27 Y phosphorylation and cdk4 activity” (The Research Foundation for the State University of New York, priority 2014, dated 2022).

This experiment has as its system MCF-7 inducible ALT cells. The experiment can be described thus: Mouse xenograft model, MCF7-ALT tumors. In kind it is in vivo, NOD/SCID mice. Conditions: day 17; start volume 200 mm3; Palbociclib 100 mg/kg daily gavage, doxycycline 0.1 mg/ml in drinking water. The procedure:
FIG. 14: ALT slows tumor growth in animals, and ALT and PD dual treatment causes tumor regression. MCF-7 inducible ALT cells were injected into the 4th mammary gland of NOD/SCID mice. Tumors were allowed to develop to a volume of 200 mm3, before treatment. Vehicle: daily gavage with PBS. PD: Daily gavage of Palbociclib 100 mg/kg. Doxy: 0.1 mg/ml doxycycline added to the drinking water to allow continuous uptake and induction of ALT in the human cancer cells. Doxy+PD: Daily gavage of Palbociclib 100 mg/kg and 0.1 mg/ml doxycycline added to the drinking water. Vehicle treated animals rapidly progressed and by 17 days, tumor volumes were >3000 mm PD treatment slowed down tumor growth but by day 17, tumors were >2500. […] However, dual ALT and PD (doxy/PD) treatment, caused tumor regression by […] (e.g., from 200 mm3 down to 0-40 mm3), by day 5, which was durable up to day 19.
NP-ALT was added to cell media in the absence of fetal bovine serum for 6 hours. This media was removed and replaced with FBS+media, and cells were allowed to recover for 2 days, at which time, cell counts were determined. Counts were standardized to the proliferation seen in the NO FBS untreated control. • Expression in vivo. […] Tumor volume was monitored every other day using digital calipers. […] Doxy+PD: Daily gavage of Palbociclib 100 mg/kg and 0.1 mg/ml doxycycline added to the drinking water. • Quantitative RT-PCR. […]

As for `CC(=O)c1c(C)c2cnc(Nc3ccc(N4CCNCC4)cn3)nc2n(C2CCCC2)c1=O` [PD0332991], the tumor volume is above 2500 mm3.
